The term AUC(0-t) denotes exposure summed from dosing to a finite time, without extrapolation to infinity. As a reminder, the Cmax is the peak of the concentration-time curve. Broadly, the Tmax is the time at which the peak concentration occurs. A word on the half-life: it is the time in which the quantity being followed falls by half.

Results on two compounds are retold here after US20250345318A1, “COMPOUND AND USE THEREOF IN PREVENTING OR TREATING RADIATION DAMAGE” (SIMCERE PHARMACEUTICAL CO., LTD., priority 2022, published 2025).

Data set [1] has as its system C57/BL6 mice. The data set can be described thus: R-JAC4 in radiation enteritis mouse model: plasma FD4, small intestine length (Example 18). It is filed as in vivo. To be noted: R-JAC4 10 mg/kg and 3 mg/kg intragastric, ABI 12 Gy. The procedure: The formulation of the vehicle for R-JAC4 was polyethylene glycol:ethanol:physiological saline=40:7.5:52.5, v/v/v. The vehicle group and the treatment groups were given the vehicle or treatment at the same volume by the same route.
The vehicle was administered to the vehicle control group intragastrically, and R-JAC4 10 mg/kg and R-JAC4 3 mg/kg interventions were given to the R-JAC4 treatment groups intragastrically. The treatment started 7 days before the X-ray radiation and was administrated once daily until the day before the end of study, for a total of […].
X-ray radiation: The mice were anesthetized intraperitoneally and exposed to ABI using an X-ray irradiator (12 Gy, 1.25 Gy/min). The irradiated region was a 3 cm region above the iliac joint below the chest, so as to induce gastrointestinal radiation syndrome.
Permeability detection in the small intestine: On day 4 post-radiation, FITC-dextran 4 kDa, abbreviated as FD4, was given to the mice intragastrically at a dose of 0.6 mg/g body weight. Peripheral blood was collected in an anticoagulation tube after 4 h, and the plasma was collected by centrifugation. The samples were added to a 96-well plate at 100 μL, and the fluorescence intensity was measured (excitation wavelength: 485 nm, emission wavelength: 535 nm). The FD4 concentrations of the samples were calculated by regression according to a standard curve. […]

Data set [2] has as its system JWA^IEC KO mice. As to the kind of experiment: R-JAC4 in radiation enteritis model, JWA^IEC KO mice (Example 19). Format: in vivo. The procedure: (§1) Intestinal epithelial cell JWA-knockout mice (JWA^IEC KO) and their wild type littermates (JWA^IEC WT) were subjected to radiation enteritis modeling in the same manner as in Example 17 and were given R-JAC4 10 mg/kg treatment. In addition to the detection of FD4 concentration, the plasma was collected from the mice at the end of study to detect the plasma proinflammatory cytokine level by ELISA and the activity of antioxidant-related enzymes by biochemical tests.

In data set [3] the test system is JWA^IEC WT mice. The data set can be described thus: R-JAC4 in radiation enteritis model, JWA^IEC WT mice (Example 19). Format: in vivo. To be noted: R-JAC4 10 mg/kg. The procedure:
as §1

Data set [4] deals with Caco-2 cells. The data set can be described thus: Integrity of irradiated single Caco-2 cell layer: electric resistance, FD4 permeability (Example 23). It is filed as cell-based. The following applies: 20 Gy, 24 h later. The procedure:
Caco-2 cells were cultured in a mixture of 78% MEM+20% FBS+1% P/S+1% NEAA and seeded in a 24-well chamber at a density of 10,000 cells/well, with the culture medium refreshed once every 2 days until day 11. The cells were then pretreated with DMSO or 1, 3, or 10 μM R-JAC4 for 3 days. The single cell layer model was constructed during the 14 days. The model was then irradiated at a dose of 0 Gy or 20 Gy at a dose rate of 2.5 Gy/min, and the electric resistance of the single cell layer and the permeability of FD4 were measured 24 h later.
For orientation: Passage across Caco-2 layers is used to estimate intestinal permeability.

The nature of data set [5]: Pharmacokinetics of R-JAC4 and S-JAC4 in mice (Example 17). Format: in vivo. To be noted: for F / clearance (CL) / AUC(0-t) / Cmax / Tmax / half-life / C0 / Vd: female BALB/c mice; for F: intragastric 10 mg/kg vs intravenous 3 mg/kg; for clearance (CL) / AUC(0-t) / Cmax / Tmax / half-life / C0 / Vd: mean, n = 3; for AUC(0-t) / Cmax / Tmax / half-life / C0 / Vd: mouse, plasma; for Vd: read-out: Vss.

Where [6] appears, read: R-JAC4, JWA^IEC KO mice vs vehicle control.
[7] abbreviates: 1 μM R-JAC4 3 days pretreatment.
Where [8] appears, read: 3 μM R-JAC4 3 days pretreatment.
Setting [9] is: single intravenous dose 3 mg/kg.
The mark [10] stands for this setting: po, single intragastric dose 10 mg/kg.

For `c1ccc(CSc2nnc([C@H]3COc4ccccc4O3)o2)nc1` [R-JAC4], the “shortening extent of the small intestine” value in data set [1] is recorded as “effective in reducing the shortening extent of the small intestine in a dose-dependent manner”. Also, in data set [1] (day 4 post-radiation), the “concentration of fluorescein FD4 in the plasma” value is on record as “dose-dependent down-regulation effect”. In data set [2] (R-JAC4 10 mg/kg, JWA^IEC KO mice vs vehicle control), the “plasma FD4 level” value is reported as “no significant change”. Also, in data set [2] (setting [6]), the “activity of plasma glutathione peroxidase and catalase” value was “no significant changes”; the “plasma levels of proinflammatory cytokines TNF-α and IL-1β” value is recorded as “no significant changes”. Further, in data set [3], the “activity of plasma glutathione peroxidase and catalase” value is reported as “significantly increased”; the “plasma FD4 level” value was “significantly downregulated”; the “plasma levels of proinflammatory cytokines TNF-α and IL-1β” value is “significantly reduced”. Further, in data set [4] (setting [7]), the “electric resistance of the single Caco-2 cell layer” value (“electric resistance” for short) is recorded as 1016±64.65 Ω·cm^2 and the “permeability of FD4 through the single cell layer” value was found to be 410.60 ± 50.99 ng/mL. For the same compound, in data set [4] (setting [8]), the “electric resistance” value was 1138±25.97 Ω·cm^2 and the “permeability of FD4 through the single cell layer” value was 345.40 ± 29.85 ng/mL. The “electric resistance” value in data set [4] (10 μM R-JAC4 3 days pretreatment) is given as 1109±101.20 Ω·cm^2. In data set [5] (BALB/c mice, calculated by F=(AUC-po/Dose-po)/(AUC-iv/Dose-iv)), the “oral bioavailability, comparison of isomers” value is “higher than that of S-JAC4”. Also, the F in data set [5] is 3.94%. For the same compound, in data set [5] (setting [9]), the “clearance (CL)” value stood at 140 mL/min/kg, the AUC(0-t) was 374 ng·h/mL, the C0 was determined as 1680 ng/mL and the half-life is 36 min. The Vd in data set [5] (setting [9]) turned out to be 3.64 L/kg. In data set [5] (setting [10]), the AUC(0-t) is 49.5 ng·h/mL, the Cmax is 176 ng/mL, the Tmax amounted to 4.98 min and the half-life was 22.7 min.
In data set [5], `c1ccc(CSc2nnc([C@@H]3COc4ccccc4O3)o2)nc1` [S-JAC4] gave an F of 1.32%. Moreover, in data set [5] (setting [9]), the “clearance (CL)” value is on record as 121 mL/min/kg, the AUC(0-t) is 410 ng·h/mL, the C0 turned out to be 1650 ng/mL and the half-life was 116 min. Further, the Vd in data set [5] (setting [9]) was 7.72 L/kg. For the same compound, in data set [5] (setting [10]), the AUC(0-t) was found to be 17.2 ng·h/mL, the Cmax was determined as 48.7 ng/mL, the Tmax came to 4.98 min and the half-life is 27.1 min.
